Results taken from the NIST ThermoML archive (doi:10.1021/je401036f).
Numbers after ± are expanded uncertainties.

Test: xn = mol fraction of the nth substance listed
Conditions: 101 kPa, Liquid; for viscosity: Concentric cylinders viscometry; for mass density: Vibrating tube method

CC(O)CN (stereo not given) [1-amino-2-propanol] + CCC(C)O
Conditions | mass density, 313.15 K [kg/m3] | mass density, 318.15 K [kg/m3] | mass density, 323.15 K [kg/m3] | mass density, 328.15 K [kg/m3] | mass density, 333.15 K [kg/m3] | viscosity, 313.15 K [mPa·s] | viscosity, 318.15 K [mPa·s] | viscosity, 323.15 K [mPa·s] | viscosity, 328.15 K [mPa·s] | viscosity, 333.15 K [mPa·s]
x1 = 0.1003 | 803.008 ± 0.27 | 798.619 ± 0.27 | 794.161 ± 0.27 | 789.608 ± 0.27 | 784.956 ± 0.27 | 2.083 ± 0.064 | 1.795 ± 0.055 | 1.556 ± 0.048 | 1.358 ± 0.042 | 1.211 ± 0.038
x1 = 0.2005 | 817.246 ± 0.29 | 812.957 ± 0.29 | 808.592 ± 0.29 | 804.15 ± 0.29 | 799.616 ± 0.29 | 2.436 ± 0.075 | 2.094 ± 0.065 | 1.814 ± 0.056 | 1.576 ± 0.049 | 1.398 ± 0.043
x1 = 0.3 | 831.847 ± 0.33 | 827.606 ± 0.33 | 823.3 ± 0.33 | 818.925 ± 0.33 | 814.474 ± 0.33 | 2.887 ± 0.089 | 2.466 ± 0.076 | 2.124 ± 0.066 | 1.845 ± 0.057 | 1.637 ± 0.051
x1 = 0.3999 | 847.055 ± 0.37 | 842.848 ± 0.37 | 838.586 ± 0.37 | 834.264 ± 0.37 | 829.873 ± 0.37 | 3.435 ± 0.11 | 2.917 ± 0.091 | 2.499 ± 0.078 | 2.154 ± 0.067 | 1.897 ± 0.059
x1 = 0.5 | 862.397 ± 0.42 | 858.232 ± 0.42 | 853.992 ± 0.42 | 849.702 ± 0.42 | 845.357 ± 0.41 | 4.114 ± 0.13 | 3.47 ± 0.11 | 2.954 ± 0.092 | 2.529 ± 0.079 | 2.212 ± 0.069
x1 = 0.6001 | 877.993 ± 0.47 | 873.856 ± 0.47 | 869.642 ± 0.47 | 865.379 ± 0.47 | 861.071 ± 0.47 | 4.924 ± 0.15 | 4.113 ± 0.13 | 3.477 ± 0.11 | 2.969 ± 0.093 | 2.59 ± 0.081
x1 = 0.7 | 893.97 ± 0.54 | 889.829 ± 0.53 | 885.646 ± 0.53 | 881.417 ± 0.53 | 877.143 ± 0.53 | 6.014 ± 0.19 | 4.982 ± 0.16 | 4.164 ± 0.13 | 3.521 ± 0.11 | 3.042 ± 0.096
x1 = 0.8 | 910.355 ± 0.61 | 906.227 ± 0.6 | 902.064 ± 0.6 | 897.859 ± 0.6 | 893.609 ± 0.59 | 7.28 ± 0.23 | 5.972 ± 0.19 | 4.955 ± 0.16 | 4.163 ± 0.13 | 3.571 ± 0.11
x1 = 0.8999 | 927.181 ± 0.69 | 923.11 ± 0.68 | 918.943 ± 0.68 | 914.764 ± 0.67 | 910.537 ± 0.67 | 8.894 ± 0.28 | 7.219 ± 0.23 | 5.938 ± 0.19 | 4.947 ± 0.16 | 4.21 ± 0.13
x1 = 1 | 944.515 ± 0.77 | 940.423 ± 0.77 | 936.293 ± 0.76 | 932.13 ± 0.76 | 927.93 ± 0.75 | 10.96 ± 0.35 | 8.798 ± 0.28 | 7.166 ± 0.23 | 5.915 ± 0.19 | 4.986 ± 0.16
